{
  "source": "patent US20070173535A1",
  "about": "“Oxadiazoles having antiproliferative activity” (priority 2002, published 2007)",
  "data": [
    {"tested_on": "MCF7 breast, NCI-H460 microcitoma and SF-268 SNC", "assay": "NCI preliminary tests on three cell lines, mean GI50", "type": "cell-based, human", "settings": "mean concentration causing 50% inhibition of cell growth; N.A. = inactive in preliminary tests on three cell lines", "procedure": "(§1) Biological assays were carried out at the National Cancer Institute according to known experimental protocols [(a) Monks A., Scudiero D., Skehan P., Shoemaker R., Paull K., Vistica D., Hose C., Langley J., Cronise P., Vaigro-Wolff A., Gray-Goodrich M., Campbell H., Mayo J., Boyd M., J. Natl. Cancer Inst., 83, 757-766 (1991). (b) Paull K. D., Shoemaker R. H., Hods L., Monks A., Scudiero D. A., Rubinstein L., Plowman J., Boyd M. R., J. Natl. Cancer Inst., 81, 1088-1092 (1989). (c) Boyd M. R., Paull K. D., Rubinstein L. R., Cytotoxic Anticancer Drugs: Models and Concept for Drug discovery, Valeriote F. A., Corbett T., Baker L., Eds., Kluwer Academic Publishers: Amsterdam, 1992, pp. 11].\nTable 1 reports the GI50, namely the mean concentration (μM) of substance which causes a 50% inhibition on the cell growth in preliminary tests carried out on three cell lines (MCF7 breast, NCI-H460 microcitoma and SF-268 SNC).", "units": {"GI50 μM) Mean": "µM"}, "values": [
      {"smiles": "c1ccc2c(c1)Cc1c(-c3nnco3)c[nH]c1-2", "note": "[Ia, 3-[[1,3,4]Oxadiazol-2′-yl]-1,4-dihydro-indeno[1,2-b]pyrrole]", "GI50 μM) Mean": 74.1},
      {"smiles": "Cc1nnc(-c2c[nH]c3c2Cc2ccccc2-3)o1", "note": "[Ib, 3-[[1,3,4]oxadiazole-5′-methyl-2′-yl]-1,4-dihydro-indeno[1,2-b]pyrrole]", "GI50 μM) Mean": 75.8},
      {"smiles": "c1ccc(-c2nnc(-c3c[nH]c4c3Cc3ccccc3-4)o2)cc1", "note": "[Ic, 3-[[1,3,4]oxadiazole-5′-phenyl-2′-yl]-1,4-dihydro-indeno[1,2-b]pyrrole]", "GI50 μM) Mean": 2.9}
    ]},
    {"tested_on": "Leukemia", "assay": "NCI GI50 on tumor cells, leukemia", "type": "cell-based, human", "settings": "Leukemia cell lines; NA = inactive products", "procedure": "as §1", "units": {"GI50": "µM"}, "values": [
      {"smiles": "c1ccc2c(c1)Cc1c(-c3nnco3)c[nH]c1-2", "note": "[Ia, 3-[[1,3,4]Oxadiazol-2′-yl]-1,4-dihydro-indeno[1,2-b]pyrrole]", "GI50": 79.7},
      {"smiles": "Cc1nnc(-c2c[nH]c3c2Cc2ccccc2-3)o1", "note": "[Ib, 3-[[1,3,4]oxadiazole-5′-methyl-2′-yl]-1,4-dihydro-indeno[1,2-b]pyrrole]", "GI50": 81.3},
      {"smiles": "c1ccc(-c2nnc(-c3c[nH]c4c3Cc3ccccc3-4)o2)cc1", "note": "[Ic, 3-[[1,3,4]oxadiazole-5′-phenyl-2′-yl]-1,4-dihydro-indeno[1,2-b]pyrrole]", "GI50": 1.82}
    ]},
    {"tested_on": "Microcitoma", "assay": "NCI GI50 on tumor cells, microcitoma", "type": "cell-based, human", "settings": "Microcitoma cell lines; NA = inactive products", "procedure": "as §1", "units": {"GI50": "µM"}, "values": [
      {"smiles": "c1ccc2c(c1)Cc1c(-c3nnco3)c[nH]c1-2", "note": "[Ia, 3-[[1,3,4]Oxadiazol-2′-yl]-1,4-dihydro-indeno[1,2-b]pyrrole]", "GI50": 57.8},
      {"smiles": "Cc1nnc(-c2c[nH]c3c2Cc2ccccc2-3)o1", "note": "[Ib, 3-[[1,3,4]oxadiazole-5′-methyl-2′-yl]-1,4-dihydro-indeno[1,2-b]pyrrole]", "GI50": 93.3},
      {"smiles": "c1ccc(-c2nnc(-c3c[nH]c4c3Cc3ccccc3-4)o2)cc1", "note": "[Ic, 3-[[1,3,4]oxadiazole-5′-phenyl-2′-yl]-1,4-dihydro-indeno[1,2-b]pyrrole]", "GI50": 3.39}
    ]},
    {"tested_on": "Colon", "assay": "NCI GI50 on tumor cells, colon", "type": "cell-based, human", "settings": "Colon cell lines; NA = inactive products", "procedure": "as §1", "units": {"GI50": "µM"}, "values": [
      {"smiles": "c1ccc2c(c1)Cc1c(-c3nnco3)c[nH]c1-2", "note": "[Ia, 3-[[1,3,4]Oxadiazol-2′-yl]-1,4-dihydro-indeno[1,2-b]pyrrole]", "GI50": 81.2},
      {"smiles": "c1ccc(-c2nnc(-c3c[nH]c4c3Cc3ccccc3-4)o2)cc1", "note": "[Ic, 3-[[1,3,4]oxadiazole-5′-phenyl-2′-yl]-1,4-dihydro-indeno[1,2-b]pyrrole]", "GI50": 1}
    ]},
    {"tested_on": "SNC", "assay": "NCI GI50 on tumor cells, SNC", "type": "cell-based, human", "settings": "SNC cell lines; NA = inactive products", "procedure": "as §1", "units": {"GI50": "µM"}, "values": [
      {"smiles": "c1ccc2c(c1)Cc1c(-c3nnco3)c[nH]c1-2", "note": "[Ia, 3-[[1,3,4]Oxadiazol-2′-yl]-1,4-dihydro-indeno[1,2-b]pyrrole]", "GI50": 86.7},
      {"smiles": "Cc1nnc(-c2c[nH]c3c2Cc2ccccc2-3)o1", "note": "[Ib, 3-[[1,3,4]oxadiazole-5′-methyl-2′-yl]-1,4-dihydro-indeno[1,2-b]pyrrole]", "GI50": 75.8},
      {"smiles": "c1ccc(-c2nnc(-c3c[nH]c4c3Cc3ccccc3-4)o2)cc1", "note": "[Ic, 3-[[1,3,4]oxadiazole-5′-phenyl-2′-yl]-1,4-dihydro-indeno[1,2-b]pyrrole]", "GI50": 2.95}
    ]},
    {"tested_on": "Melanoma", "assay": "NCI GI50 on tumor cells, melanoma", "type": "cell-based, human", "settings": "Melanoma cell lines; NA = inactive products", "procedure": "as §1", "units": {"GI50": "µM"}, "values": [
      {"smiles": "c1ccc2c(c1)Cc1c(-c3nnco3)c[nH]c1-2", "note": "[Ia, 3-[[1,3,4]Oxadiazol-2′-yl]-1,4-dihydro-indeno[1,2-b]pyrrole]", "GI50": 77.3},
      {"smiles": "Cc1nnc(-c2c[nH]c3c2Cc2ccccc2-3)o1", "note": "[Ib, 3-[[1,3,4]oxadiazole-5′-methyl-2′-yl]-1,4-dihydro-indeno[1,2-b]pyrrole]", "GI50": 79.4},
      {"smiles": "c1ccc(-c2nnc(-c3c[nH]c4c3Cc3ccccc3-4)o2)cc1", "note": "[Ic, 3-[[1,3,4]oxadiazole-5′-phenyl-2′-yl]-1,4-dihydro-indeno[1,2-b]pyrrole]", "GI50": 2.34}
    ]},
    {"tested_on": "Ovary", "assay": "NCI GI50 on tumor cells, ovary", "type": "cell-based, human", "settings": "Ovary cell lines; NA = inactive products", "procedure": "as §1", "units": {"GI50": "µM"}, "values": [
      {"smiles": "c1ccc2c(c1)Cc1c(-c3nnco3)c[nH]c1-2", "note": "[Ia, 3-[[1,3,4]Oxadiazol-2′-yl]-1,4-dihydro-indeno[1,2-b]pyrrole]", "GI50": 81.2},
      {"smiles": "Cc1nnc(-c2c[nH]c3c2Cc2ccccc2-3)o1", "note": "[Ib, 3-[[1,3,4]oxadiazole-5′-methyl-2′-yl]-1,4-dihydro-indeno[1,2-b]pyrrole]", "GI50": 30.2},
      {"smiles": "c1ccc(-c2nnc(-c3c[nH]c4c3Cc3ccccc3-4)o2)cc1", "note": "[Ic, 3-[[1,3,4]oxadiazole-5′-phenyl-2′-yl]-1,4-dihydro-indeno[1,2-b]pyrrole]", "GI50": 4.57}
    ]},
    {"tested_on": "Kidney", "assay": "NCI GI50 on tumor cells, kidney", "type": "cell-based, human", "settings": "Kidney cell lines; NA = inactive products", "procedure": "as §1", "units": {"GI50": "µM"}, "values": [
      {"smiles": "c1ccc2c(c1)Cc1c(-c3nnco3)c[nH]c1-2", "note": "[Ia, 3-[[1,3,4]Oxadiazol-2′-yl]-1,4-dihydro-indeno[1,2-b]pyrrole]", "GI50": 67.3},
      {"smiles": "Cc1nnc(-c2c[nH]c3c2Cc2ccccc2-3)o1", "note": "[Ib, 3-[[1,3,4]oxadiazole-5′-methyl-2′-yl]-1,4-dihydro-indeno[1,2-b]pyrrole]", "GI50": 91.2},
      {"smiles": "c1ccc(-c2nnc(-c3c[nH]c4c3Cc3ccccc3-4)o2)cc1", "note": "[Ic, 3-[[1,3,4]oxadiazole-5′-phenyl-2′-yl]-1,4-dihydro-indeno[1,2-b]pyrrole]", "GI50": 6.31}
    ]},
    {"tested_on": "Prostate", "assay": "NCI GI50 on tumor cells, prostate", "type": "cell-based, human", "settings": "Prostate cell lines; NA = inactive products", "procedure": "as §1", "units": {"GI50": "µM"}, "values": [
      {"smiles": "c1ccc(-c2nnc(-c3c[nH]c4c3Cc3ccccc3-4)o2)cc1", "note": "[Ic, 3-[[1,3,4]oxadiazole-5′-phenyl-2′-yl]-1,4-dihydro-indeno[1,2-b]pyrrole]", "GI50": 4.78}
    ]},
    {"tested_on": "Breast", "assay": "NCI GI50 on tumor cells, breast", "type": "cell-based, human", "settings": "Breast cell lines; NA = inactive products", "procedure": "as §1", "units": {"GI50": "µM"}, "values": [
      {"smiles": "c1ccc2c(c1)Cc1c(-c3nnco3)c[nH]c1-2", "note": "[Ia, 3-[[1,3,4]Oxadiazol-2′-yl]-1,4-dihydro-indeno[1,2-b]pyrrole]", "GI50": 73.2},
      {"smiles": "Cc1nnc(-c2c[nH]c3c2Cc2ccccc2-3)o1", "note": "[Ib, 3-[[1,3,4]oxadiazole-5′-methyl-2′-yl]-1,4-dihydro-indeno[1,2-b]pyrrole]", "GI50": 77.6},
      {"smiles": "c1ccc(-c2nnc(-c3c[nH]c4c3Cc3ccccc3-4)o2)cc1", "note": "[Ic, 3-[[1,3,4]oxadiazole-5′-phenyl-2′-yl]-1,4-dihydro-indeno[1,2-b]pyrrole]", "GI50": 3.16}
    ]},
    {"tested_on": "60 human tumor cell lines", "assay": "NCI primary screening on 60 human tumor cell lines, mean over various tumor cells", "type": "cell-based", "settings": "in words; in both cases (three-cell-line preliminary tests and various tumor cells)", "procedure": "(§2) The cytotoxic activity of compounds (I) was evidenced in primary screening studies on 60 human tumor cell lines.\nas §1", "values": [
      {"smiles": "c1ccc(-c2nnc(-c3c[nH]c4c3Cc3ccccc3-4)o2)cc1", "note": "[Ic, 3-[[1,3,4]oxadiazole-5′-phenyl-2′-yl]-1,4-dihydro-indeno[1,2-b]pyrrole]", "antiproliferative activity": "significant antiproliferative activity"}
    ]},
    {"tested_on": "60 human tumor cell lines", "assay": "NCI primary screening on 60 human tumor cell lines, mean over various tumor cells", "type": "cell-based", "settings": "mean over the tumor cell panels; NA = inactive products", "procedure": "as §2, §1", "units": {"GI50 Mean": "µM"}, "values": [
      {"smiles": "c1ccc2c(c1)Cc1c(-c3nnco3)c[nH]c1-2", "note": "[Ia, 3-[[1,3,4]Oxadiazol-2′-yl]-1,4-dihydro-indeno[1,2-b]pyrrole]", "GI50 Mean": 74.1},
      {"smiles": "Cc1nnc(-c2c[nH]c3c2Cc2ccccc2-3)o1", "note": "[Ib, 3-[[1,3,4]oxadiazole-5′-methyl-2′-yl]-1,4-dihydro-indeno[1,2-b]pyrrole]", "GI50 Mean": 75.8},
      {"smiles": "c1ccc(-c2nnc(-c3c[nH]c4c3Cc3ccccc3-4)o2)cc1", "note": "[Ic, 3-[[1,3,4]oxadiazole-5′-phenyl-2′-yl]-1,4-dihydro-indeno[1,2-b]pyrrole]", "GI50 Mean": 2.9}
    ]}
  ]
}
